Reference: patent publication US8044067B2, “Isoquinolines as IGF-1R inhibitors” (Analytecon S.A., priority 2005, dated 2011)

How the values were obtained:
[1] = tested on: insulin receptor substrate 1 (IRS-1); experiment: Inhibition of the phosphorylation of insulin receptor substrate 1 (IRS-1) in MF-55 cells; assay type: cell-based; settings: MF-55 cells (malignant melanoma), 100 ng/ml for one hour, IGF-1 50 ng/ml for 5 minutes
Experimental: MF-55 cells (malignant melanoma) were starved for 20 hours, after which half of the cell mass was incubated with racemic compound 15 (100 ng/ml) for one hour. After activation with IGF-1 (50 ng/ml) for 5 minutes, the two cell samples were lyzed in a special buffer (Upstate Ltd., Dundee, UK) that disrupts the cell membrane as well as the nucleus envelope. After removal of cell debris by centrifugation, the supernatants were analyzed for phosphorylated IRS-1 by Upstate Ltd. The presence of racemic compound 15 lowered the amount of phosphorylated IRS-1 with 20% compared to control. By blocking the function of the IGF-1 receptor, the phosphorylation of the insulin receptor substrate 1 is inhibited.

[2] = tested on: MAPK (Erk1/2); experiment: Inhibition of the phosphorylation of MAPK in DU-145 cells (immunoblotting for phospho-MAPK); assay type: cell-based; settings: DU-145 cells (prostate cancer), incubated over night in serum free medium, IGF1 50 nM for 15 minutes
Experimental: DU-145 cells (prostate cancer) were incubated over night with compound 15 in serum free medium. After stimulation for 15 minutes with IGF1 (50 nM), the cells were lyzed and the lysates analysed by immunoblotting for phospho-MAPK.

[3] = target: T1, IGF-1 receptor (Homo sapiens, UniProt P08069); experiment: Inhibition of the phosphorylation of the IGF-1 receptor in MCF-7 cells (immunoblotting for phospho-IGF-1R Y1135/1136); assay type: cell-based; settings: MCF-7 cells serum starved 20 hours, treated 3 hours, stimulated with 10 nM IGF-1 for 5 minutes
T1 construct: endogenous in cells; host or cells: MCF-7
Experimental: MCF-7 cells were serum starved for 20 hours, treated with compound 15 for 3 hours and finally stimulated with 10 nM IGF-1 for 5 minutes. The cells were lyzed and the lysates analysed by SDS-PAGE and immunoblotting for phospho-IGF-1R is (Y1135/1136).

T1 sequence (P08069 741-1367 limits assumed): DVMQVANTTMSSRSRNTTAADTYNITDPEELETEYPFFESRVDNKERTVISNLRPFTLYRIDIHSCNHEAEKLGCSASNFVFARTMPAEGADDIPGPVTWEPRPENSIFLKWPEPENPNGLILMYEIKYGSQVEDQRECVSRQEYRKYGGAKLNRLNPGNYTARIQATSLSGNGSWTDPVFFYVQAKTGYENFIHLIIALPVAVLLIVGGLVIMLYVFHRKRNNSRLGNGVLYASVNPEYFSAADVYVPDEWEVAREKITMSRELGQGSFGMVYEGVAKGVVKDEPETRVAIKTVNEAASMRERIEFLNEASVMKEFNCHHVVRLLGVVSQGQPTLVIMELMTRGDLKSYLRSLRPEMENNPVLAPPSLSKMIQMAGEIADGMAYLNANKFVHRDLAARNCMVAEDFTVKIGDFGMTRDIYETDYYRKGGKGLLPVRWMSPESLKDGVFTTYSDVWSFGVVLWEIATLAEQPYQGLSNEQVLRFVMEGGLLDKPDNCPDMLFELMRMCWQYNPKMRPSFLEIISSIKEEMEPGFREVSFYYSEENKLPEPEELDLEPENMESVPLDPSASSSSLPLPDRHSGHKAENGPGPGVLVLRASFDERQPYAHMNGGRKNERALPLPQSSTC
T1 sequence (P08069 31-736 limits assumed): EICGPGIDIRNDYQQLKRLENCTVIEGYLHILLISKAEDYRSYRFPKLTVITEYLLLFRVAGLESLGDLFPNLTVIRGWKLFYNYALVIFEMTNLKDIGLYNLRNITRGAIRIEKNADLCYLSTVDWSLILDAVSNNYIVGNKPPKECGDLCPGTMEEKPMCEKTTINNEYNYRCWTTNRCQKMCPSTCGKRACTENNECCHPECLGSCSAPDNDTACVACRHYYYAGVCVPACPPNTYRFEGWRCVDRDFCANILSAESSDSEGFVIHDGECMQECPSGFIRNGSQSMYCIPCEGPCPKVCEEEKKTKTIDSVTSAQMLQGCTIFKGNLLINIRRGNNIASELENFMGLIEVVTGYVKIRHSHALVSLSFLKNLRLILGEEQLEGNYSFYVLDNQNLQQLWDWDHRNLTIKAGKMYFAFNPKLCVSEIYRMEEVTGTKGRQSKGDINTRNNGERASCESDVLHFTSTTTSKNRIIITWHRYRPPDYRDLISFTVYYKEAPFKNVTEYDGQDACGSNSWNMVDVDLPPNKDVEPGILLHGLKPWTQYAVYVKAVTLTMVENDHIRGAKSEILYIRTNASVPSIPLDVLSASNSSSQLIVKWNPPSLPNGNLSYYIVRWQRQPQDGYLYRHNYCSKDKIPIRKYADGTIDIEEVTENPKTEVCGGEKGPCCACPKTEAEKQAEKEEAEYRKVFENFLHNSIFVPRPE

| Compound | melting point [°C] | IC50 [2] [nM] | further results |
| --- | --- | --- | --- |
| COc1ccc2c(c1O)CN(C)C(=O)C2c1cc(OC)c(OC)c(OC)c1 (racemic) [racemic compound 15, 2-methyl-4-(3,4,5-trimethoxyphenyl)-8-hydroxy-7-methoxy-1,4-dihydro-3(2H)-isoquinolinone] |  |  | lowering of the amount of phosphorylated IRS-1 compared to control [1]: 20% |
| COc1ccc2c(c1)CN(N)C(=O)C2c1cc(OC)c(OC)c(OC)c1.Cl (stereo not shown) | 164 to 167 |  |  |
| COc1ccc2c(c1O)CN(C)C(=O)C2c1cc(OC)c(OC)c(OC)c1 (single isomer, unassigned; (+)) [Compound 15, (+)-2-methyl-4-(3,4,5-trimethoxyphenyl)-8-hydroxy-7-methoxy-1,4-dihydro-3(2H)-isoquinolinone] |  | ~300 | IC50 [3]: ~1000 nM |
| COc1cc(C2C(=O)N(C)Cc3cc4c(cc32)OCCO4)cc(OC)c1OC (stereo not shown) [Compound 9, 2-methyl-4-(3,4,5-trimethoxyphenyl)-6,7-ethylenedioxy-1,4-dihydro-3(2H)-isoquinolinone] | 148 to 149 |  |  |
| COc1cc([C@@H]2c3cc4c(cc3[C@H](O)[C@H]3COC(=O)[C@@H]23)OCO4)cc(OC)c1OC [Picropodophyllin, reference compound] |  | ~5000 |  |
| COc1cc(OC)cc(C2C(=O)N(C)Cc3cc(OC)ccc32)c1 (stereo not shown) [Compound 13, 2-methyl-4-(3,5-dimethoxyphenyl)-7-methoxy-1,4-dihydro-3(2H)-isoquinolinone] | 137 to 139 |  |  |
